How the values were obtained:
FGFR1 kinase = FGFR1 kinase (Homo sapiens (Human), UniProt P11362); assay: Enzymologic experiment of FGFR1 (TR-FRET); type: biochemical; conditions: TR-FRET kinase activity
Protocol: 2. Enzymologic Experiment of FGFR1
In this experiment, the inhibitory effect of the compounds on FGFR1 kinase activity was tested by a fluorescence resonance energy transfer (TR-FRET) method, and the half maximal inhibitory concentration (IC50) of the compounds on the FGFR1 kinase activity was determined.
1) 1˜5 μL of FGFR1 enzymatic solution was added to a 384-well plate, and the final concentration of the enzyme was 0.1˜5 nM.
2) 1˜5 μL of diluted solution in gradient of the compound was added.
3) 1˜5 μL of a substrate mixture containing substrate polypeptide with a final concentration of 5˜50 nM and ATP with a final concentration of 10˜200 μM was added.
4) The mixture was incubated for 0.5-3 hours at room temperature.
5) 10 μL of EDTA and a test solution comprising labeled antibody were added, and the plate was incubated for 1 hour at room temperature.
6) The fluorescence signal values of each plate were determined by a microplate reader at 665 nm.
7) The inhibition rates were calculated according to the fluorescence signal values.
The IC50 of the compound was obtained by curve fitting according to the inhibition rates at different concentrations, and the enzymatic activity of the specific example compounds is shown in Table 1.

Hep 3B cells = assay: Inhibition of Hep 3B cell proliferation (CellTiter-Glo); type: cell-based; conditions: Homo sapiens, Hep3B, 72 hours
Protocol: 3. Experiment on the Inhibition of Hep 3B Cell Proliferation
In this experiment, the inhibitory effect of the compounds on Hep 3B cell proliferation was tested by a CellTiter-Glo method, and the half maximal inhibitory concentration (IC50) of the compounds on the activity of cell proliferation was determined.
1) A 96-well cell culture plate was seeded with 50˜100 μL of Hep 3B cell suspension at a density of 1-5×10^4 cells/ml. The culture plate was incubated in an incubator for 16-24 hours (37° C., 5% CO2).
(§1) 2) Different concentrations of the test compound in a gradient dilution were added to the cells in the culture plate. The culture plate was incubated in an incubator for 72 hours (37° C., 5% CO2).
3) 50-100 μL of CellTiter-Glo reagent were added to each well. Then, the culture plate was shaken or left to stand for 5˜30 minutes at room temperature.
(§2) 4) The chemiluminescence signal values of each plate were determined by a microplate reader.
(§3) 5) The inhibition rates were calculated according to the chemiluminescence signal values.
6) The IC50 of the compound was obtained by curve fitting according to the inhibition rates at different concentrations, and the cell activity of the specific example compounds is shown in Table 2.

HuH-7 cells = assay: Inhibition of HuH-7 cell proliferation (CellTiter-Glo); type: cell-based; conditions: Homo sapiens, 72 hours
Protocol: 4. Experiment on the Inhibition of HuH-7 Cell Proliferation
In this experiment, the inhibitory effect of the compounds on HuH-7 cell proliferation was tested by a CellTiter-Glo method, and the half maximal inhibitory concentration (IC50) of the compounds on the activity of cell proliferation was determined.
1) A 96-well cell culture plate was seeded with 50˜100 μL of HuH-7 cell suspension at a density of 1-5×10^4 cells/ml. The culture plate was incubated in an incubator for 16˜24 hours (37° C., 5% CO2).
as §1
(§4) 3) 50˜100 μL of CellTiter-Glo reagent were added to each well. Then, the culture plate was shaken or left to stand for 5˜30 minutes at room temperature.
as §2, §3
6) The IC50 of the compound was obtained by curve fitting according to the inhibition rates at different concentrations, and the cell activity of the specific Example compounds is shown in Table 2.

SK-HEP-1 cells = assay: Inhibition of SK-HEP-1 cell proliferation (CellTiter-Glo); type: cell-based; conditions: Homo sapiens, SK-HEP1, 72 hours
Protocol: 5. Experiment on the Inhibition of SK-HEP-1 Cell Proliferation
In this experiment, the inhibitory effect of the compounds on SK-HEP-1 cell proliferation was tested by a CellTiter-Glo method, and the half maximal inhibitory concentration (IC50) of the compounds on the activity of cell proliferation was determined.
1) A 96-well cell culture plate was seeded with 50˜100 μL of SK-HEP-1 cell suspension at a density of 1-5×10^4 cells/ml. The culture plate was incubated in an incubator for 16˜24 hours (37° C., 5% CO2).
as §1, §4, §2, §3
The IC50 of the compound was obtained by curve fitting according to the inhibition rates at different concentrations, and the cell activity of the specific Example compounds is shown in Table 2.

[1] = Pharmacokinetic (PK) analysis in rats; type: in vivo, Sprague Dawley (SD) rats; conditions: SD rats, single intragastric administration, 5 mg/kg, plasma; for AUC(0-t) / AUC(0-inf) / half-life / MRT / Cmax: Sprague-Dawley, rat, po; for AUC(0-t): read-out: Area Under Curve AUC0-t; for AUC(0-inf): read-out: Area Under Curve AUC0-∞; for half-life: read-out: Half-Time t1/2 (converted); for MRT: read-out: Mean Residence Time MRT; for Cmax: read-out: Plasma Concentration Cmax
Protocol: 6. Pharmacokinetic (PK) Analysis in Rats
Mode of administration: a single intragastric administration.
Formulation: 0.5% CMC and 1% Tween 80, ultrasonic dissolution.
Sampling points: 0.5, 1, 2, 4, 6, 8 and 24 hours after administration.
1. 1.0 ml of intravenous blood was collected and placed in a K2EDTA test tube.
The blood was centrifuged at room temperature at the speed of 1000˜3000×g for 5˜20 minutes to isolate the plasma, which was then stored at −80° C. 2. 160 μL of acetonitrile were added to 40 μL of plasma sample for precipitation, and then the mixture was centrifuged at the speed of 500˜2000×g for 5˜20 minutes. 3. 100 μL of treated solution were taken, and the concentration of the test compound was analyzed by LC/MS/MS. The LC/MS/MS analytical instrument was AB Sciex API 4000.
Liquid Chromatography Analysis:
Condition of Liquid chromatography: Shimadzu LC-20AD pump
Chromatographic column: phenomenex Gemiu 5 um C18 50×4.6 mm
Mobile phase: Solution A is 0.1% aqueous formic acid solution, and solution B is acetonitrile
Elution time: 0-3.5 minutes, the eluent was as follows:
Mass spectrometry analysis:
Mass spectrometer setup conditions: positive ion electrospray ionization (ESI) mode.

Sequence of FGFR1 kinase (P11362 22-822): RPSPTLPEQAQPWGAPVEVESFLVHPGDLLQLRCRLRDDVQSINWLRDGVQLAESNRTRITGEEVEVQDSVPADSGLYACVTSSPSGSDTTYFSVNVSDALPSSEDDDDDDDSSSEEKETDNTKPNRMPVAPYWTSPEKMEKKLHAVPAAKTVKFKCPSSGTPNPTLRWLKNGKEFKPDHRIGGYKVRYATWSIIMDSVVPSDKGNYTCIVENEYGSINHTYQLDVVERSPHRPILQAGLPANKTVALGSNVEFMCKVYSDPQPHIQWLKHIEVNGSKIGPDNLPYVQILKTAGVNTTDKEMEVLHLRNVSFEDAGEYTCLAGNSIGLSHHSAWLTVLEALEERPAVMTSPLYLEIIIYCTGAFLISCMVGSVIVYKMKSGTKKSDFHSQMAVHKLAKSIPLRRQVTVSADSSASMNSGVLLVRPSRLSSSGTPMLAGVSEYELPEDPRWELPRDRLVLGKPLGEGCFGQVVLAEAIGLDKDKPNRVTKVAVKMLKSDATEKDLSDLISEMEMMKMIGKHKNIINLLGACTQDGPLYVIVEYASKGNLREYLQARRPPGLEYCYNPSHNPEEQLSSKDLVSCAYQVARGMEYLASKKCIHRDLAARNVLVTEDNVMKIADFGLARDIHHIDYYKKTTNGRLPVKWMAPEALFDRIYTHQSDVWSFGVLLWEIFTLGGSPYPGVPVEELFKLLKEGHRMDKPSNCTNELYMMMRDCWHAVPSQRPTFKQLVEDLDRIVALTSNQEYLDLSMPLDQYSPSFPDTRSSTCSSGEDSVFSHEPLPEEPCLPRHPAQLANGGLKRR

| Compound | IC50 (FGFR1 kinase) [nM] | IC50 (Hep 3B cells) [nM] | IC50 (HuH-7 cells) [nM] | IC50 (SK-HEP-1 cells) [nM] | Peak Time tmax [1] [h] | AUC(0-t) [1] [ng·h/mL] | AUC(0-inf) [1] [ng·h/mL] | half-life [1] [h] | MRT [1] [h] | Cmax [1] [ng/mL] |
| --- | --- | --- | --- | --- | --- | --- | --- | --- | --- | --- |
| COCCNc1cc(NC(=O)N2CCCc3cc(CN(C)C(=O)[C@H]4CCCO4)c(C=O)nc32)ncc1C#N [Example 1, (R)—N-(5-Cyano-4-((2-methoxyethyl)amino)pyridin-2-yl)-7-formyl-6-((N-methyltetrahydrofuran-2-carboxamido)methyl)-3,4-dihydro-1,8-naphthyridin-1(2H)-carb oxamide] | > 10000 | 7.3 | 11 | > 10000 | 2 | 6800 | 6930 | 1.1 | 3.1 | 2070 |
| COCCNc1cc(NC(=O)N2CCCc3cc(CN(C)C(=O)[C@@H]4CCCO4)c(C=O)nc32)ncc1C#N [Example 2, (S)—N-(5-Cyano-4-((2-methoxyethyl)amino)pyridin-2-yl)-7-formyl-6-((N-methyltetrahydrofuran-2-carboxamido)methyl)-3,4-dihydro-1,8-naphthyridin-1(2H)-carb oxamide] | > 10000 | 5.3 | 5.9 | > 10000 | 2 | 5820 | 5900 | 1.2 | 2.5 | 2200 |
| COCCNc1cc(NC(=O)N2CCCc3cc(CN(C)C(=O)C4COC4)c(C=O)nc32)ncc1C#N [Example 3, N-(5-Cyano-4-((2-methoxyethyl)amino)pyridin-2-yl)-7-formyl-6-((N-methyloxetane-3-carboxamido)methyl)-3,4-dihydro-1,8-naphthyridin-1(2H)-carboxamide] | > 10000 | 5.4 | 38.8 | > 10000 | 2 | 6350 | 6660 | 1.6 | 3.3 | 2230 |
| COCCNc1cc(NC(=O)N2CCCc3cc(CN(C)C(=O)C4CCOC4)c(C=O)nc32)ncc1C#N (stereo not drawn) [Example 5, N-(5-Cyano-4-((2-methoxyethyl)amino)pyridin-2-yl)-7-formyl-6-((N-methyltetrahydrofuran-3-carboxamido)methyl)-3,4-dihydro-1,8-naphthyridin-1(2H)-carboxamide] | > 10000 | 9.1 | 31.7 | > 10000 | 2 | 13000 | 13400 | 1.2 | 3.2 | 3570 |
| COCCNc1cc(NC(=O)N2CCCc3cc(CN4CC[C@H](OC)C4=O)c(C=O)nc32)ncc1C#N [Example 46, (S)—N-(5-Cyano-4-((2-methoxyethyl)amino)pyridin-2-yl)-7-formyl-6-((3-methoxy-2-carbonylpyrrolidin-1-yl)methyl)-3,4-dihydro-1,8-naphthyridin-1(2H)-carboxamide] | > 10000 | 2.3 | 9 | > 10000 | 2 | 10700 | 11300 | 1 | – | 3290 |
| CO[C@@H]1CCN(c2cc(NC(=O)N3CCCc4cc(CN5CC[C@H](OC)C5=O)c(C=O)nc43)ncc2C#N)C1 [Example 54, N-(5-Cyano-4-((R)-3-methoxypyrrolidin-1-yl)pyridin-2-yl)-7-formyl-6-(((S)-3-methoxy-2-carbonylpyrrolidin-1-yl)methyl)-3,4-dihydro-1,8-naphthyridin-1(2H)-carboxamide] | > 10000 | 4.4 | 11.3 | > 10000 | 2 | 7130 | 7870 | 1 | 2.7 | 2870 |
| CO[C@H]1CCN(Cc2cc3c(nc2C=O)N(C(=O)Nc2cc(N[C@H]4CCOC4)c(C#N)cn2)CCC3)C1=O [Example 84, N-(5-Cyano-4-(((S)-tetrahydrofuran-3-yl)amino)pyridin-2-yl)-7-formyl-6-(((S)-3-methoxy-2-carbonylpyrrolidin-1-yl)methyl)-3,4-dihydro-1,8-naphthyridin-1(2H)-carboxamide] | > 10000 | 2.4 | 11 | > 10000 | 2 | 8860 | 8950 | 0.9 | 3.1 | 2620 |
| CO[C@H]1CCN(Cc2cc3c(nc2C=O)N(C(=O)Nc2cc(N[C@@H]4CCOC4)c(C#N)cn2)CCC3)C1=O [Example 85, N-(5-Cyano-4-(((R)-tetrahydrofuran-3-yl)amino)pyridin-2-yl)-7-formyl-6-(((S)-3-methoxy-2-carbonylpyrrolidin-1-yl)methyl)-3,4-dihydro-1,8-naphthyridin-1(2H)-carboxamide] | > 10000 | 2.6 | 4.6 | > 10000 | 2 | 7280 | 7370 | 0.9 | 3.3 | 2120 |
| COCCNc1cc(NC(=O)N2CCCc3cc(CN(C[C@H]4CCCO4)C(C)=O)c(C=O)nc32)ncc1C#N [Example 109, (R)—N-(5-Cyano-4-((2-methoxyethyl)amino)pyridin-2-yl)-7-formyl-6-((N-((tetrahydrofuran-2-yl)methyl)acetamido)methyl)-3,4-dihydro-1,8-naphthyridin-1(2H)-carboxamide] | > 10000 | 6 | 11.1 | > 10000 | – | – | – | – | – | – |
| COCCNc1cc(NC(=O)N2CCCc3cc(CN(C[C@@H]4CCCO4)C(C)=O)c(C=O)nc32)ncc1C#N [Example 111, (S)—N-(5-Cyano-4-((2-methoxyethyl)amino)pyridin-2-yl)-7-formyl-6-((N-((tetrahydrofuran-2-yl)methyl)acetamido)methyl)-3,4-dihydro-1,8-naphthyridin-1(2H)-carboxamide] | > 10000 | 8.3 | 21.5 | > 10000 | – | – | – | – | – | – |

Source: US11608332B2, “FGFR4 inhibitor and preparation method and use thereof” (Jiangsu Hansoh Pharmaceutical Group Co., Ltd., priority 2016, dated 2023)
